This note sets out measurements from publication PMC6757289, “Design and Characterization of SGK3-PROTAC1, an Isoform Specific SGK3 Kinase PROTAC Degrader” (ACS Chemical Biology, 2019).

Common to all, as to experiment: kinase profiling panel
Holding throughout (type): biochemical

The test system of one test is AMPK (hum). The following applies: 1 µM. The text has this:
(§1) Protein kinase profiling against a Dundee panel of 140 protein kinases was undertaken at the International Centre for Protein Kinase Profiling. The result for each kinase was presented as a mean kinase activity of the reaction taken in triplicate relative to a control sample treated with DMSO. Assay conditions and abbreviations are available at http://www.kinase-screen.mrc.ac.uk.

In another test the target is CDK9-Cyclin T1 (Homo sapiens, UniProt P50750). The note with it: read-out: % Activity Remaining.
Source text: as §1

For another test, the target named is T1, DYRK2 (Homo sapiens, UniProt Q92630).
T1 sequence (Q92630 1-601): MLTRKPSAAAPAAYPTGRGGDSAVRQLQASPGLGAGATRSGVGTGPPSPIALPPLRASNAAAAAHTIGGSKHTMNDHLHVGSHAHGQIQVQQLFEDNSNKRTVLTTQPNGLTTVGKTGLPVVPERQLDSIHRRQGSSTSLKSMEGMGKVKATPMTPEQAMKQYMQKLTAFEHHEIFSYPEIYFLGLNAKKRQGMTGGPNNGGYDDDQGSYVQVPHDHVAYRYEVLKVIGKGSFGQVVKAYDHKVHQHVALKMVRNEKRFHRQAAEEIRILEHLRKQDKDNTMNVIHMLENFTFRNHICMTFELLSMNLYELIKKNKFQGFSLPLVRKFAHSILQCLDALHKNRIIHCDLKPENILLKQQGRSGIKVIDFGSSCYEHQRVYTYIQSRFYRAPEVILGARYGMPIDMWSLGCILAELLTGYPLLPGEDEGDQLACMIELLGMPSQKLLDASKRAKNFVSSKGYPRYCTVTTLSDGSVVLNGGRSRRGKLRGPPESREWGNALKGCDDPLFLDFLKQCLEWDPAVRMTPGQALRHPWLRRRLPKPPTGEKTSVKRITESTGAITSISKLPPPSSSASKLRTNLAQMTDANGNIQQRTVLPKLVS
The following applies: read-out: % Activity Remaining.
Source text: as §1

Another test has as its target HIPK1 (Homo sapiens, UniProt Q86Z02). The following applies: read-out: % Activity Remaining.
Source text: as §1

The target of the next test is T2, IRAK4 (Homo sapiens, UniProt Q9NWZ3).
T2 sequence (Q9NWZ3 1-460): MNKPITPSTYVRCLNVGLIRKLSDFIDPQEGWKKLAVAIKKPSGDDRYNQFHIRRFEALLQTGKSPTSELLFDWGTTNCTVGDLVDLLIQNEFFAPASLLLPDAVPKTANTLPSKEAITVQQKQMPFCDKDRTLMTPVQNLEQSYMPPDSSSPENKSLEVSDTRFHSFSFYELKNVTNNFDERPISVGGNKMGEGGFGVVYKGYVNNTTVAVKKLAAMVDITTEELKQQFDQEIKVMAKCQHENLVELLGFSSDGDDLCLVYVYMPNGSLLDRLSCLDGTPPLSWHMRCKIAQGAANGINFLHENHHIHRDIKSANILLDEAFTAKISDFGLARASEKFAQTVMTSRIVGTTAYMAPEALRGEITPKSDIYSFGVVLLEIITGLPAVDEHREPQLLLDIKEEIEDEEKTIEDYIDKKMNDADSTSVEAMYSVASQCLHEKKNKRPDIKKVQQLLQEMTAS
The following applies: read-out: % Activity Remaining.
Source text: as §1

Another test addresses IRR (Homo sapiens, UniProt P14616). The following applies: read-out: % Activity Remaining.
Source text: as §1

For another test, the target named is Lck (Homo sapiens, UniProt P06239). The note with it: read-out: % Activity Remaining.
Source text: as §1

The next test has as its target PIM2 (Homo sapiens, UniProt Q9P1W9). The following applies: read-out: % Activity Remaining.
Source text: as §1

The next test deals with PKB beta (Homo sapiens, UniProt P31751). The note with it: read-out: % Activity Remaining.
Source text: as §1

The target of the next test is T3, PKC zeta (Homo sapiens, UniProt Q05513).
T3 sequence (Q05513 1-592): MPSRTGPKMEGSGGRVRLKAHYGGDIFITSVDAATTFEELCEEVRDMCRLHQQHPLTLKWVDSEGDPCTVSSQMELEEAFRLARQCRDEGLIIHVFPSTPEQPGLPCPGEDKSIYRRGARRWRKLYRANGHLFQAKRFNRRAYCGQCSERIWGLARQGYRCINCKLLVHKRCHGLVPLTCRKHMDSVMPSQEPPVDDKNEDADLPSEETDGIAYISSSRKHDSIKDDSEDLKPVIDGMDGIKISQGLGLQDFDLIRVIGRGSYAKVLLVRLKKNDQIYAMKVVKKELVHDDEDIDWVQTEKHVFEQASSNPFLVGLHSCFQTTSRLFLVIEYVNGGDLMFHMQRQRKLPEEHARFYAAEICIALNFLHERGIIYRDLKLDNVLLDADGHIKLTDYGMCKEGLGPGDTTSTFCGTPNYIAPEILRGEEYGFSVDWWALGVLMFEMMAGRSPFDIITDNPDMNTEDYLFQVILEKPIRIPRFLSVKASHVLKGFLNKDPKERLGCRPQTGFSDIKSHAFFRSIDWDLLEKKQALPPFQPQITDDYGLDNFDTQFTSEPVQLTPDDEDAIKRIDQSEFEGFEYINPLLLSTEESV
The following applies: read-out: % Activity Remaining.
Source text: as §1

The target of the next test is SYK (Homo sapiens, UniProt P43405). The following applies: read-out: % Activity Remaining.
Source text: as §1

The target of another test is TIE2 (Homo sapiens, UniProt Q02763). The following applies: read-out: % Activity Remaining.
Source text: as §1

Another test addresses T4, p38 gamma MAPK (Homo sapiens, UniProt P53778).
T4 sequence (P53778 1-367): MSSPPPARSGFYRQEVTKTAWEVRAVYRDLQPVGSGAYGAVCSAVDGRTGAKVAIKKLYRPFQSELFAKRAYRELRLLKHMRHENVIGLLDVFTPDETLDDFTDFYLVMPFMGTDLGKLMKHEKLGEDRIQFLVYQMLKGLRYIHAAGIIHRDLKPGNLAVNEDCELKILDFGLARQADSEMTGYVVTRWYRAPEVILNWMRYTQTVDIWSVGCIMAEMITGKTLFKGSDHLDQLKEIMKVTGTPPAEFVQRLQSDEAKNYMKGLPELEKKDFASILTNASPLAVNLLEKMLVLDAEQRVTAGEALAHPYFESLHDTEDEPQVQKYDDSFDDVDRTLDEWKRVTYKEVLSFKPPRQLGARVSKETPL
The note with it: read-out: % Activity Remaining.
Source text: as §1

Read-outs that look alike come from different tables or passages of the source.

Sequence of CDK9-Cyclin T1 (P50750 whole entry): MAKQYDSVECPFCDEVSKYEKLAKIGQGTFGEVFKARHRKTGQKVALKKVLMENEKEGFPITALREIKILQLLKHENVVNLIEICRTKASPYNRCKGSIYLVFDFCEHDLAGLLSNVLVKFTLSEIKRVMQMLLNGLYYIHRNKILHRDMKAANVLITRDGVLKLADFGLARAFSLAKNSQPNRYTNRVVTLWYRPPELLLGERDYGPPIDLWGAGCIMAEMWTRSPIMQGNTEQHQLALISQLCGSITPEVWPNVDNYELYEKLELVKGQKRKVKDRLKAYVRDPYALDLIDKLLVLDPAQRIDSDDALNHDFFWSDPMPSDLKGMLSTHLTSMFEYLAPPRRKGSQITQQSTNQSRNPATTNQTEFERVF
Sequence of CDK9-Cyclin T1 (O60563 whole entry partner): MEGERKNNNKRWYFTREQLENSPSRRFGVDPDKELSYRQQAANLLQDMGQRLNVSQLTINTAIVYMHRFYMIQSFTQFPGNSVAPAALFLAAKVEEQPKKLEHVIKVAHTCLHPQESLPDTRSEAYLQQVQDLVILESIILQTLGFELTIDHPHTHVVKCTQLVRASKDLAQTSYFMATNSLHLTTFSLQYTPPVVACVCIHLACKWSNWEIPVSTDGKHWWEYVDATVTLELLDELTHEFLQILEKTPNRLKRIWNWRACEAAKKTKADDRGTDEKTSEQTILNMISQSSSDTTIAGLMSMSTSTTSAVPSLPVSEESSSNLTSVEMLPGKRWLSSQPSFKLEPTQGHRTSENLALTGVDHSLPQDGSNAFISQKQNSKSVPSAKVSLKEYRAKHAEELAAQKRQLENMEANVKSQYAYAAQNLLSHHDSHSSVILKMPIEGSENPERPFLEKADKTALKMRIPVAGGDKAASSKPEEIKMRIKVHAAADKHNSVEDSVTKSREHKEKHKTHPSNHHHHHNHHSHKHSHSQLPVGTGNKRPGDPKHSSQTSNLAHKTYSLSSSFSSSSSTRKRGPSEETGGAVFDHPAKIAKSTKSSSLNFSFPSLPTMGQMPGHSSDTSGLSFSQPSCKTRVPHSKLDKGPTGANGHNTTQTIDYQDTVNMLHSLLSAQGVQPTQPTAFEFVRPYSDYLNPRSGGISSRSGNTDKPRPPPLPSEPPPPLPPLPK
Sequence of HIPK1 (Q86Z02 whole entry): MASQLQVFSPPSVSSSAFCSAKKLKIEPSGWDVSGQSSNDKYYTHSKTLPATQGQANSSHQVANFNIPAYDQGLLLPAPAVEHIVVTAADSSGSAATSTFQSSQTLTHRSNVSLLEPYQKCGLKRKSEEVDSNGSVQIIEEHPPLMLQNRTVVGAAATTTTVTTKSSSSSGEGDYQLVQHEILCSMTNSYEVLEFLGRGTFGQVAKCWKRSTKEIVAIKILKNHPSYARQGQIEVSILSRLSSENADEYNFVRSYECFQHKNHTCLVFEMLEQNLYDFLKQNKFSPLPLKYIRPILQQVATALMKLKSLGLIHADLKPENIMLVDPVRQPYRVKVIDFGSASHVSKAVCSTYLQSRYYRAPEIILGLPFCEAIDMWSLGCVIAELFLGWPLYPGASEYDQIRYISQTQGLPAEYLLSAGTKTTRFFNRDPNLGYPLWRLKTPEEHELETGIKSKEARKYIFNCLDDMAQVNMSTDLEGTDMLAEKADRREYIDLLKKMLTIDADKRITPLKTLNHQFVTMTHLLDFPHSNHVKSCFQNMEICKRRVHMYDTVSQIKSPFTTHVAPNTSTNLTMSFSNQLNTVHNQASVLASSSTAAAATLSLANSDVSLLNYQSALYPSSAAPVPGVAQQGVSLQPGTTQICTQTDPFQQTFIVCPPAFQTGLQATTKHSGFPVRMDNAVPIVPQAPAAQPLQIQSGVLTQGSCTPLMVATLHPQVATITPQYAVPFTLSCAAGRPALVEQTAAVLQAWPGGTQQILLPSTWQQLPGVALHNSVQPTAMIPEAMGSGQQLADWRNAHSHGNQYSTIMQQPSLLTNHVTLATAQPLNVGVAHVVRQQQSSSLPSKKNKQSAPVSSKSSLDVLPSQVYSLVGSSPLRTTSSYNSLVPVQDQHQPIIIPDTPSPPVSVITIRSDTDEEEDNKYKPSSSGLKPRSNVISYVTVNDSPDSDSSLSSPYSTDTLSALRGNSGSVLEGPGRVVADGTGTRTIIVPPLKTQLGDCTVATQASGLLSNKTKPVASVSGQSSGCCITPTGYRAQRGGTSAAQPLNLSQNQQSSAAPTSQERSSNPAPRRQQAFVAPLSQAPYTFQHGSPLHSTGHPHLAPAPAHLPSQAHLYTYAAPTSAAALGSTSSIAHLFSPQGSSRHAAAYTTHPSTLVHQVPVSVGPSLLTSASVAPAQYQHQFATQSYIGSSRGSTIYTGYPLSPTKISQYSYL
Sequence of TIE2 (Q02763 23-1124): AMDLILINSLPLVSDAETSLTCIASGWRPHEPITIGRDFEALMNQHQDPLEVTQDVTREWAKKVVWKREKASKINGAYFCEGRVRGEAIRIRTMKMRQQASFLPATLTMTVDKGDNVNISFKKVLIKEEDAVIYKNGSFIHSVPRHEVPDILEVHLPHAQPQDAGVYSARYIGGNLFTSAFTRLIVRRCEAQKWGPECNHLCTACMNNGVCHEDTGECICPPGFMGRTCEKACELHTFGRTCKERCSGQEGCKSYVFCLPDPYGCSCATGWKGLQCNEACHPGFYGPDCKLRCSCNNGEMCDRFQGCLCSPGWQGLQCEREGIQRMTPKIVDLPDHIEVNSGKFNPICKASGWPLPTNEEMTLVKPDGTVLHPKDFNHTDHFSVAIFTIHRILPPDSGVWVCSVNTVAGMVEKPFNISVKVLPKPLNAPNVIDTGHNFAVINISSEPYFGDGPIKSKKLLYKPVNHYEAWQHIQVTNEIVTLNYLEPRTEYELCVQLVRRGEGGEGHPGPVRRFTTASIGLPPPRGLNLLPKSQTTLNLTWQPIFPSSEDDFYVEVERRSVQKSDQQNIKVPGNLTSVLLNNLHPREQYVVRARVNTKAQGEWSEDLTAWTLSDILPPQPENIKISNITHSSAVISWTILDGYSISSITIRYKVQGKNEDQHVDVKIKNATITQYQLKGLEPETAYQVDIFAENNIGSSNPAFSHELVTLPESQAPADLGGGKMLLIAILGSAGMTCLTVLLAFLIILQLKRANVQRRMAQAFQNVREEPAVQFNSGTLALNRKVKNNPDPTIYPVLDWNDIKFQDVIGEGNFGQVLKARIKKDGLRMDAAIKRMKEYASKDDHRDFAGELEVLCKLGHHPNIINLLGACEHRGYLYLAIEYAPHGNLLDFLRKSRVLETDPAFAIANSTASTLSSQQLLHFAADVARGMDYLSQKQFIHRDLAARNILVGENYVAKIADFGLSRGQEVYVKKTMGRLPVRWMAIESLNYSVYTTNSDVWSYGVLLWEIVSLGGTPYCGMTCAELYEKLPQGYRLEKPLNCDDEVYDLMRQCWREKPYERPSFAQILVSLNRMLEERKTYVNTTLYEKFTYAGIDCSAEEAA
Sequence of PKB beta (P31751 whole entry): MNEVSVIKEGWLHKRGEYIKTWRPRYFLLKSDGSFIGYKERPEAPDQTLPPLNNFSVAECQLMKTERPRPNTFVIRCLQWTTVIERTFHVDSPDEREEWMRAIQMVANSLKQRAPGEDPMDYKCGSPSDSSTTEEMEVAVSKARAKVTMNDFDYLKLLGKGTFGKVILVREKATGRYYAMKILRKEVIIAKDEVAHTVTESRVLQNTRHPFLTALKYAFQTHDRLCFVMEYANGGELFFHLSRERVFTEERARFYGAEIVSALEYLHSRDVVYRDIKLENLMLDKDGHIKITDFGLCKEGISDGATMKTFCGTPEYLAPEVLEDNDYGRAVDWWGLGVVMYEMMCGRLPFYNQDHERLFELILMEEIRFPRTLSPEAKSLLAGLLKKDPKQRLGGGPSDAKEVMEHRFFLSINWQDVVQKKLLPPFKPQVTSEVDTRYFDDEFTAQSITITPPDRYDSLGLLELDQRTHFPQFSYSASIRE
Sequence of Lck (P06239 whole entry): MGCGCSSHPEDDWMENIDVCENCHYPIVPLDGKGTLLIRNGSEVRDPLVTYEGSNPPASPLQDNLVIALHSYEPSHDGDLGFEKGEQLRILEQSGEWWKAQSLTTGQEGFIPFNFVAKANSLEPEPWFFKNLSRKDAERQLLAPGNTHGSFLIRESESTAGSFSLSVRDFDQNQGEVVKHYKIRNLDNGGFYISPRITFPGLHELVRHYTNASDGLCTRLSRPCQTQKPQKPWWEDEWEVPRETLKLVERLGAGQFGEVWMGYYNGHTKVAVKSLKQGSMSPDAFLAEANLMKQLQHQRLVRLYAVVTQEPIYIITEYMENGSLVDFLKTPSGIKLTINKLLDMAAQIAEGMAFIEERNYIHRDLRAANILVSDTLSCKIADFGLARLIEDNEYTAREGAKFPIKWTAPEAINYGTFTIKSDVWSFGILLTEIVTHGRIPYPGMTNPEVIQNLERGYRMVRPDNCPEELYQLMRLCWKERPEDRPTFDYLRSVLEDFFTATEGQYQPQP
Sequence of PIM2 (Q9P1W9 whole entry): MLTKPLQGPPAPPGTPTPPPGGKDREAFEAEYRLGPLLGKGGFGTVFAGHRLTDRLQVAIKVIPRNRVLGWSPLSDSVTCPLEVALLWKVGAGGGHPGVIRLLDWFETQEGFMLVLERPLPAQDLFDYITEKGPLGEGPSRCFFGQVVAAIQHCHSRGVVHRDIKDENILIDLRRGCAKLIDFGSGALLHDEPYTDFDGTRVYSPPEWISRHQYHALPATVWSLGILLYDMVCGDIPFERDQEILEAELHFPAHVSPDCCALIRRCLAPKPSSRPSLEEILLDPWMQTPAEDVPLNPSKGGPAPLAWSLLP

`COc1ccc(Cl)c(S(=O)(=O)Nc2ccc(-c3nc(OC[C@H]4CNCCO4)c4c(C)n[nH]c4n3)cc2)c1` [290-R, reference compound]: the “% Activity Remaining” value with AMPK (hum) was found to be 15%. Moreover, the remaining activity at 1 µM came out at 105% on CDK9-Cyclin T1; 100% at DYRK2; 117% at HIPK1; 74% on IRAK4; 96% at IRR; 89% on Lck. Besides, the remaining activity at 1 µM on PIM2 is 105%; on PKB beta, 55%; at PKC zeta it was 110%; on SYK, 88%; at TIE2, 17%; at p38 gamma MAPK it was 112%.

`Cc1ccc(F)c(S(=O)(=O)Nc2ccc(-c3nc(OC[C@H]4CNCCO4)c4cn[nH]c4n3)cc2)c1` [308-R, reference compound]: in the test on AMPK (hum), the “% Activity Remaining” value was determined as 78%. In addition, the remaining activity at 1 µM at CDK9-Cyclin T1 was determined as 63%; on DYRK2, 74%; at HIPK1, 73%; on IRAK4, 105%; on IRR it was 106%; on Lck, 98%. For the same compound, the remaining activity at 1 µM on PIM2 worked out at 127%; on PKB beta, 35%; on PKC zeta it was 72%; on SYK, 100%; on TIE2 it was 51%; on p38 gamma MAPK, 111%.

For the compound `Cc1ccc(F)c(S(=O)(=O)Nc2ccc(-c3nc(OC[C@H]4CN(CCCCCCOCCOCCOCC(=O)N[C@H](C(=O)N5C[C@H](O)C[C@H]5C(=O)NCc5ccc(-c6scnc6C)cc5)C(C)(C)C)CCO4)c4cn[nH]c4n3)cc2)c1` [SGK3-PROTAC1], the “% Activity Remaining” value in the test on AMPK (hum) is given as 105%. For the same compound, the remaining activity at 1 µM at CDK9-Cyclin T1 (1 µM) was 103%; at DYRK2 (1 µM), 102%; at HIPK1 (1 µM), 135%; on IRAK4 (1 µM), 114%; on IRR (1 µM) it was 103%; on Lck (1 µM) it was 124%. Moreover, the remaining activity at 1 µM was determined as 98% on PIM2 (1 µM); 99% at PKB beta (1 µM); 96% on PKC zeta (1 µM); 116% at SYK (1 µM); 64% at TIE2 (1 µM); 107% on p38 gamma MAPK (1 µM).

Turning to `Cc1ccc(F)c(S(=O)(=O)Nc2ccc(-c3nc(OC[C@H]4CN(CCCCCCOCCOCCOCC(=O)N[C@H](C(=O)N5C[C@@H](O)C[C@H]5C(=O)NCc5ccc(-c6scnc6C)cc5)C(C)(C)C)CCO4)c4cn[nH]c4n3)cc2)c1` [cisSGK3-PROTAC1], the “% Activity Remaining” value in the test on AMPK (hum) was 108%. Also, the remaining activity at 1 µM on CDK9-Cyclin T1 (1 µM) was found to be 105%; at DYRK2 (1 µM) it was 97%; at HIPK1 (1 µM), 126%; at IRAK4 (1 µM) it was 98%; on IRR (1 µM), 90%; at Lck (1 µM), 116%. Besides, the remaining activity at 1 µM on PIM2 (1 µM) was determined as 105%; on PKB beta (1 µM), 101%; on PKC zeta (1 µM), 110%; at SYK (1 µM), 103%; on TIE2 (1 µM), 81%; at p38 gamma MAPK (1 µM), 127%.
